Entries after “also recorded” stand apart in the source; their conditions may differ.

By IC50 is commonly meant the concentration that gives 50% inhibition.

Test [1] deals with bombesin receptor of rat pancreatic acini cells (rat) (UniProt P52500). Put plainly: displacement of 125I-labeled bombesin from rat pancreatic acini cells. For orientation: In a radioligand displacement assay an active substance lowers the binding of a labelled ligand.
Test [2] shares this target.
Test [3] has as its target adenylate cyclase activity in rat anterior pituitary homogenates. To be noted: Robberecht et al.; cited from earlier work.
The test system of test [4] is rat anterior pituitary cells. Put plainly: Growth hormone release from primary culture of rat anterior pituitary cells (agonist potency). Format: cell-based. The method, then:
(§1) Phase 7—Inhibition of Growth Hormone Release
(§2) Anterior pituitaries from adult male rats, weighing 200-250 g and housed under controlled conditions (lights on from 0500-1900 h), were dispersed using aseptic technique by a previously described trypsin/DNase method (Heiman et al., Endocrinology, 1985, 116, 410) derived from other methods (Hoefer et al., Mol. Cell. Endocrinol., 1984, 35, 229).
(§3) The dispersed cells were diluted with sterile-filtered Dulbecco's modified Eagle medium (MEM) (Gibco Laboratories, Grand Island, N.Y. (GIBCO)), which was supplemented with fetal calf serum (2.5%; GIBCO), horse serum (3%; GIBCO), fresh rat serum (10% stored on ice for no longer than 1 h) from the pituitary donors, MEM nonessential amino acids (1%; GIBCO), gentamycin (10/mg/mL; Sigma) and nystatin (10,000 U/mL; GIBCO). The cells were counted with a hemacytometer (approximately 2,000,000 cells per pituitary) and randomly plated at a density of 200,000 per well (Co-star cluster 24; Rochester Scientific Co., Rochester, N.Y.). […]
(§4) Growth hormone (GH) in plasma and media was measured by a standard double antibody radioimmunoassay using components supplied by the NIDDK and the National Hormone and Pituitary Program, University of Maryland School of Medicine. […] Potencies and 95% confidence intervals were calculateds by 4-point assay (Pugsley, Endocrinology, 1946, 39, 161). […]

For test [5], the system named is rat anterior pituitary cells. Format: cell-based. To be noted: vs 1 nM GRF(1-29)NH2; read-out: IC50 (antagonist of GRF-stimulated GH secretion). On the procedure:
as §1, §2, §3, §4

“The analogues (D-Phe-Gln-Trp-Ala-Val-N-methyl-D-Ala-His-Leu-methylester and D-F5-Phe-Gln-Trp-Ala-Val-D-Ala-His-Leu-methylester)”: the half-maximal effective dose in test [1] fell in the range of 5 to 10 nM. This molecule showed an inhibition of amylase release produced by bombesin, half-maximal effective dose in test [2] of 5 to 10 nM.
As to [N-Ac-Tyr^1, D-Arg^2]GRF(1-29)NH2, the IC50 in test [3] is roughly 1 µM.
`CC[C@H](C)[C@H](NC(=O)[C@H](C)NC(=O)[C@H](CC(=O)O)NC(=O)[C@H](C)NC(=O)[C@@H](N)Cc1ccc(O)cc1)C(=O)N[C@@H](Cc1ccccc1)C(=O)N[C@H](C(=O)N[C@@H](CC(N)=O)C(=O)N[C@@H](CO)CN[C@@H](Cc1ccc(O)cc1)C(=O)N[C@@H](CCCNC(=N)N)C(=O)N[C@@H](CCCCN)C(=O)N[C@H](C(=O)N[C@@H](CC(C)C)C(=O)NCC(=O)N[C@@H](CCC(N)=O)C(=O)N[C@@H](CC(C)C)C(=O)N[C@@H](CO)C(=O)N[C@@H](C)C(=O)N[C@@H](CCCNC(=N)N)C(=O)N[C@@H](CCCCN)C(=O)N[C@@H](CC(C)C)C(=O)N[C@@H](CC(C)C)C(=O)N[C@@H](CCC(N)=O)C(=O)N[C@@H](CC(=O)O)C(=O)N[C@H](C(=O)N[C@@H](CCSC)C(=O)N[C@@H](CO)C(=O)N[C@@H](CCCNC(=N)N)C(N)=O)[C@@H](C)CC)C(C)C)[C@@H](C)O` [VIII, [Ser^9ψ[CH2NH]Tyr^10]-GRF(1-29)NH2]: in test [4] (doses as high as 0.1 mM), the “agonist activity in the potency assay (in words)” value was “inactive; also recorded: all trace of agonist activity was lost”. In addition, the IC50 in test [5] is roughly 10 µM.
Take GRF(1-29)NH2 [reference compound]: the “Potency (%)” value in test [4] (GH release, relative to GRF(1-29)NH2 = 100, 4-point assay) worked out at 100%.

(Values after patent publication US20050026827A1, “Octapeptide bombesin analogs” (Societe de Conseils de Recherches et d'Applications …, priority 1987, published 2005).)
